Reference: the supplement of paper PMC10307832

Legend:
Experiment in all cases: relative viability (nuclei count vs DMSO), 5 days (fraction); higher = more cells survive
[1] = compound: C#Cc1cccc(Nc2ncnc3cc(OC)c(OCCCCCCC(=O)NO)cc23)c1 [CUDC-101] + Cc1nc(Nc2ncc(C(=O)Nc3c(C)cccc3Cl)s2)cc(N2CCN(CCO)CC2)n1 [Dasatinib] (partner 0.075 µM)
Procedure, shortened: (§1)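 Dosing by pin tool came one day after lung cancer cell lines were seeded in 1536-well plates, using either one drug or a fixed anchor-drug dose plus five library-drug doses (not always all listed) in √10 steps. After 5 days, nuclei were counted on 4× images. Relative viability is treated-well nuclei count divided by vehicle-well nuclei count, and values are medians of duplicate plates.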

[2] = compound: C#Cc1cccc(Nc2ncnc3cc(OC)c(OCCCCCCC(=O)NO)cc23)c1 [CUDC-101] + O=C(c1cc(Cc2n[nH]c(=O)c3ccccc23)ccc1F)N1CCN(C(=O)C2CC2)CC1 [Olaparib] (partner 8 µM)
Procedure, shortened: as §1

[3] = compound: COc1cc(N2CCC(N3CCN(C)CC3)CC2)ccc1Nc1ncc(Cl)c(Nc2ccccc2S(=O)(=O)C(C)C)n1 [NVP-TAE684] + NC(=O)Nc1cc(-c2cccc(F)c2)sc1C(=O)N[C@H]1CCCNC1 [AZD7762] (partner 0.2 µM)
Procedure, shortened: as §1

[4] = compound: C1=CC=C2C(=C1)N=C(S2)C(C#N)C3=NC(=NC=C3)NCCC4=CN=CC=C4 + CC(C)C[C@H](NC(=O)[C@H](Cc1ccccc1)NC(=O)c1cnccn1)B(O)O [Bortezomib] (partner 0.002 µM)
Procedure, shortened: as §1

Cell Line	relative viability ([1]; first compound 0.01 µM)	relative viability ([1]; first compound 0.03162 µM)	relative viability ([1]; first compound 0.1 µM)	relative viability ([1]; first compound 0.3162 µM)	relative viability ([1]; first compound 1 µM)	relative viability ([2]; first compound 0.01 µM)	relative viability ([2]; first compound 0.03162 µM)	relative viability ([2]; first compound 0.1 µM)	relative viability ([2]; first compound 0.3162 µM)	relative viability ([2]; first compound 1 µM)	relative viability ([3]; first compound 0.2 µM)	relative viability ([3]; first compound 0.6325 µM)	relative viability ([3]; first compound 2 µM)	relative viability ([4]; first compound 0.005 µM)	relative viability ([4]; first compound 0.01581 µM)	relative viability ([4]; first compound 0.05 µM)	relative viability ([4]; first compound 0.1581 µM)	relative viability ([4]; first compound 0.5 µM)
NCI-H522	0.931	0.758	0.928	0.842	0.596	0.674	0.624	0.7	0.693	0.529	0.91	0.938	0.744	–	–	–	–	–
RERF-LC-KJ	0.793	0.891	0.765	0.793	0.421	0.939	0.917	0.92	0.818	0.699	0.97	0.985	0.729	1.02	1.12	0.971	1.16	0.905
A-427	0.745	0.659	0.649	0.608	0.389	0.711	0.671	0.722	0.694	0.607	0.69	0.528	0.366	0.934	1.07	0.968	1.02	0.974
EKVX	0.374	0.499	0.571	0.439	0.362	1.06	0.737	0.71	0.961	0.624	0.634	0.677	0.375	0.94	1.13	1.1	1.31	0.996
NCI-H460	0.555	0.506	0.524	0.602	0.44	0.458	0.42	0.428	0.465	0.349	0.767	0.568	0.591	–	1.09	1.08	1.42	0.609
HARA	0.246	0.311	0.271	0.282	0.229	1	0.844	–	0.418	0.154	0.305	0.286	0.258	1.22	1.04	1.14	1.18	0.859
NCI-H1944	0.215	0.184	0.201	0.196	0.196	0.4	0.349	0.353	0.333	0.235	0.507	0.441	0.348	–	–	–	–	–
BEN	0.426	0.301	0.346	0.311	0.264	0.91	0.853	1.11	0.785	0.691	0.794	0.615	0.6	0.699	0.818	0.869	1.02	0.893
PC-14	0.292	0.232	0.0804	0.0597	0.0289	0.273	0.317	0.295	0.165	0.0702	0.339	0.275	0.224	0.665	1.12	0.9	0.965	0.679
NCI-H322M	0.28	0.243	0.224	0.236	0.276	0.789	0.674	0.771	0.692	0.594	0.553	0.599	0.453	0.947	1.31	1.21	1.32	1.23
NCI-H1651	0.378	0.335	0.434	0.39	0.384	0.194	0.209	0.192	0.2	0.182	0.423	0.48	0.401	0.636	0.924	0.935	1.05	0.957
LCLC-97TM1	0.821	0.804	0.864	0.855	0.596	0.452	0.4	0.368	0.446	0.437	0.283	0.2	0.194	–	0.356	0.627	0.754	0.291
NCI-H727	0.298	0.422	0.359	0.375	0.311	0.797	0.623	0.708	0.699	0.461	0.588	0.58	0.344	0.526	0.76	0.819	1.13	0.624
NCI-H1623	0.561	0.501	0.429	0.676	0.486	–	–	–	–	–	–	–	–	–	–	–	–	–
NCI-H1666	0.903	0.786	0.814	0.911	0.795	0.777	0.741	0.717	0.751	0.713	0.898	0.889	0.652	1.12	0.867	0.673	0.899	0.822
IA-LM	–	–	–	–	–	0.768	0.871	0.74	0.86	0.46	–	–	–	–	0.844	0.697	0.839	0.855
NCI-H1792	0.764	0.683	0.856	0.819	0.691	0.495	0.379	0.381	0.407	0.278	0.678	0.733	0.394	–	1.04	0.941	1.11	0.534
NCI-H1299	–	–	–	–	–	0.964	0.953	1	0.98	0.883	–	–	–	1.08	1.08	1.04	1.01	1.05
HCC-366	0.631	0.632	0.6	0.715	0.526	0.363	0.353	0.325	0.345	0.245	0.269	0.194	0.218	0.85	1.1	1.07	1.3	0.927
NCI-H1703	–	–	–	–	–	–	0.389	0.489	0.662	0.428	0.0907	0.102	0.0966	0.318	0.416	0.307	0.33	0.466
COR-L 105	0.337	0.382	0.277	0.418	0.122	0.703	0.74	0.759	0.697	0.77	–	–	–	0.725	0.583	0.723	0.783	0.666
NCI-H1650	0.302	0.292	0.321	0.324	0.221	0.926	0.667	0.744	0.867	0.578	–	–	–	0.26	0.204	0.19	0.21	0.206

Cell Line	relative viability ([1]; first compound 0.01 µM)	relative viability ([1]; first compound 0.03162 µM)	relative viability ([1]; first compound 0.1 µM)	relative viability ([1]; first compound 0.3162 µM)	relative viability ([1]; first compound 1 µM)	relative viability ([2]; first compound 0.01 µM)	relative viability ([2]; first compound 0.03162 µM)	relative viability ([2]; first compound 0.1 µM)	relative viability ([2]; first compound 0.3162 µM)	relative viability ([2]; first compound 1 µM)	relative viability ([3]; first compound 0.2 µM)	relative viability ([3]; first compound 0.6325 µM)	relative viability ([3]; first compound 2 µM)	relative viability ([4]; first compound 0.005 µM)	relative viability ([4]; first compound 0.01581 µM)	relative viability ([4]; first compound 0.05 µM)	relative viability ([4]; first compound 0.1581 µM)	relative viability ([4]; first compound 0.5 µM)
NCI-H2009	0.321	0.281	0.396	0.443	0.338	0.698	0.694	0.697	0.615	0.646	–	–	–	0.936	0.906	1.03	1.08	0.993
SK-MES-1	0.333	0.394	0.367	0.417	0.207	0.697	0.775	0.727	0.658	0.512	–	–	–	–	–	–	–	–
Calu-6	–	–	–	–	–	0.545	0.503	0.522	0.484	0.332	–	–	–	0.943	0.946	0.912	1.02	0.915
NCI-H2170	0.633	0.512	0.583	0.475	0.363	0.643	0.625	0.576	0.583	0.386	1.04	0.814	0.785	–	–	–	–	–
NCI-H2228	0.542	0.543	0.536	0.52	0.4	0.756	0.783	1.03	0.659	0.653	–	–	–	0.828	1.09	1.16	1.1	0.997
NCI-H2342	0.316	0.301	0.325	0.298	0.241	0.425	0.487	0.44	0.513	0.432	0.463	0.437	0.349	–	–	–	–	–
NCI-H1395	0.418	0.385	0.438	0.434	0.363	0.472	0.558	0.447	0.435	0.405	0.417	0.367	0.397	–	–	–	–	–
NCI-H1563	0.439	0.465	0.448	0.488	0.429	–	–	–	–	–	–	–	–	0.808	0.769	0.886	0.873	0.798
COR-L23	0.578	0.485	0.477	0.499	0.177	0.402	0.374	0.331	0.266	0.294	–	–	–	0.891	1	1.08	1.16	0.925
EBC-1	–	–	–	–	–	0.744	0.674	0.683	0.666	0.26	–	–	–	0.52	0.545	0.544	0.666	0.504
NCI-H1793	0.393	0.371	0.342	0.415	0.371	0.857	0.753	0.888	0.944	0.549	0.479	0.247	0.169	–	–	–	–	–
NCI-H358	0.157	0.164	0.166	0.16	0.131	0.641	0.625	0.66	0.543	0.408	0.55	0.298	0.225	–	–	–	–	–
NCI-H2023	0.564	0.635	0.616	0.748	0.461	0.499	0.448	0.453	0.486	0.387	–	–	–	0.893	0.956	0.942	1.14	1.02
SW 1573	0.62	0.764	0.517	0.498	0.358	0.634	0.477	0.587	0.603	0.349	–	–	–	0.659	1.26	–	1.1	0.936
SW 900	0.455	0.68	0.791	0.602	0.618	0.887	0.811	0.841	0.686	0.628	0.526	0.476	0.445	–	–	–	–	–
NCI-H661	0.926	0.926	0.862	0.815	0.386	0.795	0.69	0.632	0.611	0.437	–	–	–	0.708	0.824	0.662	0.695	0.794
A549	–	–	–	–	–	0.415	0.24	0.355	0.417	0.286	–	–	–	–	–	–	–	–
NCI-H1648	–	–	–	–	–	1.19	0.762	0.665	0.748	0.294	0.677	0.56	0.399	–	–	–	–	–
HCC-44	–	–	–	–	–	0.964	1.01	0.893	0.972	1.07	1.03	1.08	1.03	0.87	0.878	0.877	0.961	0.882
SK-LU-1	0.189	0.219	0.177	0.207	0.196	0.473	0.503	0.421	0.487	0.434	–	–	–	0.871	–	0.998	1.42	1.23
LK-2	0.298	0.389	0.25	0.284	0.157	0.821	0.754	0.597	0.495	0.281	0.49	0.268	0.129	–	–	–	–	–
NCI-H520	0.196	0.166	0.192	0.259	0.218	0.298	0.325	0.305	0.298	0.194	–	–	–	0.348	0.526	0.577	1.27	0.406
